What was measured:
[1] = biological target: T1, human sphingosine-1-phosphate receptor 1 (S1P1) (Homo sapiens (Human), UniProt P21453); assay: β-Arrestin2 recruitment assay (PathHunter), S1P1 CHO-K1 cells; type: cell-based; conditions: for Emax: CHO-K1, read-out: hS1P1 B-arrestin2 SPAN; for hS1P1 B-arrestin2 pEC50: β-arrestin2 recruitment, S1P1 CHO-K1 cells
Outline: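 Enzyme-fragment complementation read-out: agonist-driven β-arrestin2 binding to ProLink-tagged human S1P1 in stable CHO-K1 cells restores β-galactosidase, measured 1 h at room temperature after a 60 min 37° C. compound incubation. Potency as pEC50, efficacy relative to fingolimod (SPAN).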
Target sequence in this assay (P21453 whole entry, looked up, the tested form may be a part): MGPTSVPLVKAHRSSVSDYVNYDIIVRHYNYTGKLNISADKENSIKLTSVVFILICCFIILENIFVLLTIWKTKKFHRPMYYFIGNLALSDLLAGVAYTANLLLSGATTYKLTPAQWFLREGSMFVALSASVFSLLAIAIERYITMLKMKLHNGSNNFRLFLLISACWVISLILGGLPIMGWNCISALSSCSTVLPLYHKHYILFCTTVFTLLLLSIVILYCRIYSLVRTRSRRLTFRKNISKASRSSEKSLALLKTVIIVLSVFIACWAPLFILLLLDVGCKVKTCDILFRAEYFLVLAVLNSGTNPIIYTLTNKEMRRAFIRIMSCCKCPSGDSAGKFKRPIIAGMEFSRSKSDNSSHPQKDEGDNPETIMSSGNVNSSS
Target sequence in this assay (P32121 whole entry partner, looked up, the tested form may be a part): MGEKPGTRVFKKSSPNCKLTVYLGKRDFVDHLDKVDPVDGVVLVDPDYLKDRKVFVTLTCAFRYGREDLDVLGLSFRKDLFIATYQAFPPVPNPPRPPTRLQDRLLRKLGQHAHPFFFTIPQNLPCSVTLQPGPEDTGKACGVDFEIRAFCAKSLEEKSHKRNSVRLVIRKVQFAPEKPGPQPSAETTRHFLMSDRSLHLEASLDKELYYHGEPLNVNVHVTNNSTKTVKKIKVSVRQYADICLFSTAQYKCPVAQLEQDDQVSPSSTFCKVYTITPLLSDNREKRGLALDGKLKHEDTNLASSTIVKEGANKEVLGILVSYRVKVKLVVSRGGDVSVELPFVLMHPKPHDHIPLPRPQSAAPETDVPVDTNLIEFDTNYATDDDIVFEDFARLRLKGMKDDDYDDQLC

[2] = biological target: T1, human sphingosine-1-phosphate receptor 1 (S1P1); assay: Inhibition of cAMP production (HTRF cAMP HiRange), S1P1 CHO-K1 cells; type: cell-based; conditions: for Emax: CHO-K1, read-out: hS1P1 cAMP SPAN; for hS1P1 cAMP pEC50: inhibition of cAMP production, S1P1 CHO-K1 cells
Outline: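 CHO-K1 cells stably co-expressing human S1P1 (C-terminal Prolink tag) and EA-β-arrestin2 were grown in AssayComplete Media 6 at 37° C. and 5% CO2, plated, and incubated overnight. Agonist-driven inhibition of intracellular cAMP was read by TR-FRET with the HTRF cAMP HiRange kit on a PheraStar reader. Potency is pEC50, and efficacy (SPAN) is normalized to fingolimod.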
Target sequence in this assay (P21453 whole entry, looked up, the tested form may be a part): as the sequence (P21453 whole entry, looked up, the tested form may be a part) above

[3] = efficacy (SPAN) normalized to fingolimod

SMILES	Emax [1, 3] [%]	hS1P1 B-arrestin2 pEC50 [1]	Emax [2, 3] [%]	hS1P1 cAMP pEC50 [2]	hS1P1 B-arrestin2 SPAN [1, 3]	hS1P1 cAMP SPAN [2, 3]
O=C(O)CCn1nnc2cc(-c3noc(-c4ccccc4Br)n3)ccc21 [Compound 134, 3-(5-(5-(2-bromophenyl)-1,2,4-oxadiazol-3-yl)-1H-benzo[d][1,2,3]triazol-1-yl)propanoic acid]	< 75	<5	< 75	<6.5	–	–
CCC1(CC)CC(=O)c2cc(-c3nsc(-c4cccnc4)n3)ccc2O1 [Compound 137, 2,2-diethyl-6-(5-(pyridin-3-yl)-1,2,4-thiadiazol-3-yl)chroman-4-one]	> 75	<5	> 75	>6.5	–	–
COc1ccccc1-c1nc(-c2ccc3c(c2)nnn3C(C)C)ns1 [Compound 138, 5-[5-(2-methoxyphenyl)-1,2,4-thiadiazol-3-yl]-1-(propan-2-yl)-1H-1,2,3-benzotriazole]	> 75	>5	> 75	>6.5	–	–
Cc1ccccc1-c1noc(-c2ccc3c(c2)nnn3CC(C)(C)O)n1 [Compound 139, 2-methyl-1-{5-[3-(2-methylphenyl)-1,2,4-oxadiazol-5-yl]-1H-1,2,3-benzotriazol-1-yl}propan-2-ol]	> 75	>5	> 75	>6.5	–	–
Cc1ccsc1-c1noc(-c2ccc3c(c2)nnn3CC(C)(C)O)n1 [Compound 140, 2-methyl-1-{5-[3-(3-methylthiophen-2-yl)-1,2,4-oxadiazol-5-yl]-1H-1,2,3-benzotriazol-1-yl}propan-2-ol]	> 75	>5	> 75	>6.5	–	–
CCC1(CC)CC(=O)c2cc(-c3nsc(-c4ccc5c(c4)nnn5C(C)C)n3)ccc2O1 [Compound 143, 2,2-diethyl-6-(5-(1-isopropyl-1H-benzo[d][1,2,3]triazol-5-yl)-1,2,4-thiadiazol-3-yl)chroman-4-one]	< 75	<5	< 75	<6.5	–	–
COc1ccccc1-c1nnc(-c2ccc3c(c2)nnn3C(C)C)s1 [Compound 144, 5-[5-(2-methoxyphenyl)-1,3,4-thiadiazol-2-yl]-1-(propan-2-yl)-1H-1,2,3-benzotriazole]	–	>5	–	<6.5	–	–
C=CCNc1ccc(-c2nc(-c3ccc4[nH]nnc4c3)no2)cc1C#N [Compound 145, 5-(3-(1H-benzo[d][1,2,3]triazol-5-yl)-1,2,4-oxadiazol-5-yl)-2-(allylamino)benzonitrile]	–	>5	–	>6.5	–	–
CCC1(CC)CC(=O)c2cc(-c3nc(-c4ccnc(F)c4)no3)ccc2O1 [Compound 146, 2,2-diethyl-6-(3-(2-fluoropyridin-4-yl)-1,2,4-oxadiazol-5-yl)chroman-4-one]	< 75	>5	> 75	>6.5	–	–
O=C1CC2(CCOCC2)Oc2ccc(-c3nc(-c4ccncc4)no3)cc21 [Compound 148, 6-[3-(pyridin-4-yl)-1,2,4-oxadiazol-5-yl]-3,4-dihydrospiro[1-benzopyran-2,4′-oxane]-4-one]	–	<5	–	<6.5	–	–
CCC1(CC)CC(=O)c2cc(-c3nc(-c4ccc(C(=O)N(C)C)cc4)no3)ccc2O1 [Compound 151, 4-(5-(2,2-diethyl-4-oxochroman-6-yl)-1,2,4-oxadiazol-3-yl)-N,N-dimethylbenzamide]	–	<5	–	<6.5	>75	>75
CCC1(CC)CC(=O)c2cc(-c3nc(-c4ccc(NC)cc4)no3)ccc2O1 [Compound 153, 2,2-diethyl-6-(3-(4-(methylamino)phenyl)-1,2,4-oxadiazol-5-yl)chroman-4-one]	< 75	>5	> 75	<6.5	–	–
Cc1ccccc1C(C)c1noc(-c2ccc3c(c2)nnn3CC(C)C)n1 (stereo not drawn) [Compound 154, 5-{3-[1-(2-methylphenyl)ethyl]-1,2,4-oxadiazol-5-yl}-1-(2-methylpropyl)-1H-1,2,3-benzotriazole]	–	<5	–	<6.5	–	–
Cc1cc(C)cc(-c2noc(-c3ccc4c(c3)nnn4C3CCCCC3)n2)c1 [Compound 158, 1-cyclohexyl-5-[3-(3,5-dimethylphenyl)-1,2,4-oxadiazol-5-yl]-1H-1,2,3-benzotriazole]	< 75	<5	< 75	<6.5	–	–
COC(=O)CCn1nnc2cc(-c3noc(-c4ccccc4Br)n3)ccc21 [Compound 161, methyl 3-(5-(5-(2-bromophenyl)-1,2,4-oxadiazol-3-yl)-1H-benzo[d][1,2,3]triazol-1-yl)propanoate]	–	<5	–	<6.5	–	–
Cc1ccccc1-c1nc(-c2ccc3c(c2)nnn3C2CCCC2)no1 [Compound 162, 3-(1-cyclopentyl-1H-benzo[d][1,2,3]triazol-5-yl)-5-(o-tolyl)-1,2,4-oxadiazole]	–	>5	–	<6.5	–	–
Cc1ccc(-c2noc(-c3ccc4c(c3)nnn4C3CCCC3)n2)cc1 [Compound 164, 1-cyclopentyl-5-[3-(4-methylphenyl)-1,2,4-oxadiazol-5-yl]-1H-1,2,3-benzotriazole]	–	<5	–	<6.5	–	–

Second part, the molecule after the results:

Emax [1, 3] [%]	hS1P1 B-arrestin2 pEC50 [1]	Emax [2, 3] [%]	hS1P1 cAMP pEC50 [2]	hS1P1 B-arrestin2 SPAN [1, 3]	hS1P1 cAMP SPAN [2, 3]	SMILES
< 75	<5	< 75	<6.5	–	–	Cc1ncc(-c2nc(-c3ccc4c(c3)nnn4C(C)C)no2)nc1C [Compound 133, 5-(5,6-dimethylpyrazin-2-yl)-3-(1-isopropyl-1H-benzo[d][1,2,3]triazol-5-yl)-1,2,4-oxadiazole]
< 75	<5	< 75	<6.5	–	–	CCc1ncc(-c2noc(-c3ccc4c(c3)nnn4C(C)C)n2)cn1 [Compound 135, 5-[3-(2-ethylpyrimidin-5-yl)-1,2,4-oxadiazol-5-yl]-1-(propan-2-yl)-1H-1,2,3-benzotriazole]
< 75	<5	< 75	<6.5	–	–	COc1cc(C)c(-c2noc(-c3ccc4c(c3)nnn4C(C)C)n2)c(OC)c1 [Compound 136, 5-[3-(2,4-dimethoxy-6-methylphenyl)-1,2,4-oxadiazol-5-yl]-1-(propan-2-yl)-1H-1,2,3-benzotriazole]
> 75	>5	> 75	>6.5	–	–	C=CCNc1ccc(-c2nc(-c3ccc4c(c3)nnn4C(C)C)no2)cc1C#N [Compound 150, 2-(allylamino)-5-(3-(1-isopropyl-1H-benzo[d][1,2,3]triazol-5-yl)-1,2,4-oxadiazol-5-yl)benzonitrile]
–	<5	–	<6.5	–	–	COc1cc(-c2noc(-c3ccc4c(c3)nnn4C3CC3)n2)ccn1 [Compound 155, 1-cyclopropyl-5-[3-(2-methoxypyridin-4-yl)-1,2,4-oxadiazol-5-yl]-1H-1,2,3-benzotriazole]
> 75	>5	> 75	>6.5	–	–	Cc1cc(-c2nc(-c3ccc4c(c3)nnn4C(C)C)no2)cc(C)n1 [Compound 156, 5-(2,6-dimethylpyridin-4-yl)-3-(1-isopropyl-1H-benzo[d][1,2,3]triazol-5-yl)-1,2,4-oxadiazole]
–	<5	–	<6.5	–	–	Cc1cnc(-c2noc(-c3ccc4c(c3)nnn4C(C)C)n2)cn1 [Compound 157, 5-[3-(5-methylpyrazin-2-yl)-1,2,4-oxadiazol-5-yl]-1-(propan-2-yl)-1H-1,2,3-benzotriazole]
–	<5	–	<6.5	–	–	Cc1cncc(-c2nc(-c3ccc4c(c3)nnn4C(C)C)no2)c1 [Compound 159, 3-(1-isopropyl-1H-benzo[d][1,2,3]triazol-5-yl)-5-(5-methylpyridin-3-yl)-1,2,4-oxadiazole]
–	<5	–	<6.5	–	–	CCCn1nnc2cc(-c3nc(-c4ccccc4)no3)ccc21 [Compound 160, 5-(3-phenyl-1,2,4-oxadiazol-5-yl)-1-propyl-1H-1,2,3-benzotriazole]
> 75	–	> 75	–	–	–	CC(C)n1nnc2cc(-c3nc(-c4ccccc4Cl)co3)ccc21 [Compound 163]
–	<5	–	<6.5	–	–	CC(C)n1nnc2cc(-c3nc(-c4cccnc4)no3)ccc21 [Compound 165, 1-(propan-2-yl)-5-[3-(pyridin-3-yl)-1,2,4-oxadiazol-5-yl]-1H-1,2,3-benzotriazole]
–	<5	–	<6.5	–	–	Cc1ccc(-c2nc(-c3ccc4c(c3)nnn4C(C)C)no2)c(C)c1 [Compound 166, 5-(2,4-dimethylphenyl)-3-(1-isopropyl-1H-benzo[d][1,2,3]triazol-5-yl)-1,2,4-oxadiazole]
–	<5	–	<6.5	–	–	CC(C)c1cc(-c2nc(-c3ccc4c(c3)nnn4C(C)C)no2)ccn1 [Compound 167, 3-(1-isopropyl-1H-benzo[d][1,2,3]triazol-5-yl)-5-(2-isopropylpyridin-4-yl)-1,2,4-oxadiazole]

From US11912693B2, “Compounds for modulating S1P1 activity and methods of using the same” (TREVENA, INC., priority 2017, dated 2024)
